Molecules are shown by their SMILES. Counter-ions that a name gives are not always drawn. Like-named read-outs stand apart in the source and are kept apart here.

For series [1] the following is noted: cited from earlier work.
For series [2] the following is noted: cited from earlier work. This is another data set of the same source.
Series [3] can be described thus: NAC depletion under and without ultraviolet irradiation, HPLC with fluorescence detection (284 nm excitation, 333 nm fluorescence). Particulars: single compound.
Series [4] is described as follows: NAL depletion under and without ultraviolet irradiation, HPLC with fluorescence detection (284 nm excitation, 333 nm fluorescence). Particulars: single compound.
A short description of series [5]: Average score of NAC and NAL depletion and phototoxicity or photoallergy determination, fluorescence detection. Particulars: under light irradiation, single compound.
A short description of series [6]: NAC depletion under and without ultraviolet irradiation, HPLC with UV detection (281 nm). Particulars: for NAC Depletion (%) without light irradiation: 25° C. 24 hours light-shielded; for NAC Depletion (%) without light irradiation / NAC Depletion (%) under light irradiation: test substance solution 1 mmol/L; for NAC Depletion (%) under light irradiation: 2,000 μW/cm^2 for 1 hour then 25° C. 23 hours.

Series [7] can be described thus: NAL depletion under and without ultraviolet irradiation, HPLC with UV detection (281 nm). Particulars: for NAL Depletion (%) without light irradiation: 25° C. 24 hours light-shielded; for NAL Depletion (%) without light irradiation / NAL Depletion (%) under light irradiation: test substance solution 1 mmol/L; for NAL Depletion (%) under light irradiation: 2,000 μW/cm^2 for 1 hour then 25° C. 23 hours.

With `COc1ccc2ccc(=O)oc2c1` [7-Methoxy coumarin], the In vivo photoallergy result in series [1] (literature classification) was “Positive”.
For `CN(C)CCCN1c2ccccc2Sc2ccc(Cl)cc21` [No. 1, Chlorpromazine HCl], the In vivo phototoxicity entry in series [2] (literature classification) is “Positive”. For the same compound, the In vivo photoallergy result in series [1] (literature classification) was “Positive”.
In the case of `Cc1ccc2oc(=O)ccc2c1` [No. 2, 6-Methylcoumarin], in series [2] (literature classification), the In vivo phototoxicity entry is “Positive”. For the same compound, the In vivo photoallergy result in series [1] (literature classification) is listed as “Positive”.
As to `O=C(c1ccccc1)c1ccccc1` [No. 4, Benzophenone], the In vivo photoallergy result in series [1] (in vivo) was “Positive”.
For the compound `Oc1c(Cl)cc(Cl)cc1Sc1cc(Cl)cc(Cl)c1O` [No. 5, Bithionol], in series [2] (literature classification), the In vivo phototoxicity result was “Positive”. In addition, the In vivo photoallergy result in series [1] (literature classification) is “Positive”.
In the case of `CCn1cc(C(=O)O)c(=O)c2cc(F)c(N3CCNCC3)nc21` [No. 6, Enoxacin], the In vivo phototoxicity result in series [2] (literature classification) is “Positive”. The In vivo photoallergy entry in series [1] (literature classification) was “Positive”.
As for `CN1C(C(=O)Nc2ccccn2)=C(O)c2ccccc2S1(=O)=O` [No. 8, Piroxicam], in series [2] (literature classification), the In vivo phototoxicity entry is listed as “Positive”. Besides, the In vivo photoallergy entry in series [1] (literature classification) is reported as “Positive”.
On to `O=C(Nc1ccc(Br)cc1)c1cc(Br)cc(Br)c1O` [No. 10, Tribromsalan], for which, in series [2] (in vivo), the In vivo phototoxicity result is “Positive”. Further, the In vivo photoallergy result in series [1] (in vivo) is “Positive”.
`Nc1ccc(N)cc1` [No. 11, p-Phenylenediamine]: the In vivo photoallergy entry in series [1] (literature classification) is given as “Positive”.
Consider `O=C([O-])Cc1ccccc1Nc1c(Cl)cccc1Cl.[Na+]` [No. 13, Diclofenac Na, reference compound], for which the In vivo photoallergy entry in series [1] (literature classification) was “Positive”. Moreover, in series [3] (under light irradiation), the “NAC Depletion (%)” value stood at 100.0%. Besides, in series [4] (under light irradiation), the “NAL Depletion (%)” value worked out at 0.0%.
For the compound `CC(CN1c2ccccc2Sc2ccccc21)N(C)C` (centres unmarked) [No. 14, Promethazine HCl], the In vivo phototoxicity entry in series [2] (literature classification) was “Positive”. Moreover, the In vivo photoallergy result in series [1] (literature classification) was “Positive”.
Turning to `C=C[C@H]1CN2CC[C@H]1C[C@H]2[C@H](O)c1ccnc2ccc(OC)cc12.Cl.O.O` [No. 15, Quinine HCl (2H2O), reference compound], the “NAC Depletion (%)” value in series [3] (under light irradiation) was 99.8%. Moreover, the “NAL Depletion (%)” value in series [4] (under light irradiation) is 0.7%.
For `COc1c(C(C)(C)C)cc([N+](=O)[O-])c(C)c1[N+](=O)[O-]` [No. 17, Musk ambrette], in series [2] (literature classification), the In vivo phototoxicity entry is “Negative”. For the same compound, the In vivo photoallergy result in series [1] (literature classification) is “Positive”.
As for `O=C(Nc1ccc(Cl)cc1)Nc1ccc(Cl)c(Cl)c1` [No. 20, Triclocarban], the In vivo phototoxicity entry in series [2] (literature classification) was “Negative”. For the same compound, in series [1] (literature classification), the In vivo photoallergy entry is reported as “Positive”.
On to `Oc1ccc(Cl)cc1Sc1cc(Cl)ccc1O` [No. 22, Fenticlor], for which the In vivo photoallergy result in series [1] (literature classification) is “Positive”.
For the compound `NS(=O)(=O)c1cc2c(cc1Cl)NCNS2(=O)=O` [No. 24, Hydrochlorothiazide], the In vivo photoallergy result in series [1] (literature classification) is “Positive”.
`NNC(=O)c1ccncc1` [No. 25, Isoniazid]: the In vivo photoallergy entry in series [1] (literature classification) is “Positive”.
Turning to `[Na+].[O-]n1ccccc1=S` [No. 26, Omadine (Na salt)], the In vivo photoallergy result in series [1] (in vivo) is “Positive”.
`Nc1ccc(S(N)(=O)=O)cc1` [No. 27, Sulfanilamide]: in series [1] (literature classification), the In vivo photoallergy result is “Positive”.
Consider `CCOc1ccc2c(C)cc(=O)oc2c1` [No. 29, 4-Methyl-7-ethoxycoumarin], for which the In vivo photoallergy entry in series [1] (literature classification) is listed as “Positive”.
`COc1c2ccoc2cc2oc(=O)ccc12` [No. 31, 5-Methoxypsoralen]: the In vivo phototoxicity result in series [2] (literature classification) is “Positive”. The In vivo photoallergy entry in series [1] (literature classification) was “Negative”.
In the case of `CNc1ccccc1C(=O)OC` [No. 32, Methyl-N-methylanthranilate], in series [2] (literature classification), the In vivo phototoxicity entry is “Positive”. The In vivo photoallergy result in series [1] (literature classification) is recorded as “Negative”.
For `CC(=O)c1c(C)c([N+](=O)[O-])c(C(C)(C)C)c([N+](=O)[O-])c1C` [No. 33, Musk ketone], the In vivo phototoxicity result in series [2] (literature classification) is listed as “Positive”. The In vivo photoallergy result in series [1] (literature classification) is “Negative”.
As for `c1ccc2nc3ccccc3cc2c1` [No. 34, Acridine], the In vivo phototoxicity result in series [2] (literature classification) is reported as “Positive”. Further, the In vivo photoallergy entry in series [1] (literature classification) was “Negative”.
For `CN(C)[C@@H]1C(=O)C(C(N)=O)=C(O)[C@@]2(O)C(=O)C3=C(O)c4c(O)cccc4[C@@](C)(O)[C@H]3C[C@@H]12` [No. 36, Tetracycline, reference compound], the In vivo photoallergy entry in series [1] (literature classification) was “Negative”. In series [5], the “Average score (%)” value worked out at 64.3%. Moreover, the “NAC Depletion (%)” value in series [3] (under light irradiation) turned out to be 100.0%. Further, in series [4] (under light irradiation), the “NAL Depletion (%)” value was found to be 28.6%.
Turning to `CC(C)OC(=O)C(C)(C)Oc1ccc(C(=O)c2ccc(Cl)cc2)cc1` [No. 38, Fenofibrate], the In vivo phototoxicity result in series [2] (literature classification) was “Positive”.
`OCC(O)CO` [No. 51, Glycerine]: the In vivo phototoxicity result in series [2] (literature classification) is listed as “Negative”.
On to `CCCCCCCCCCCC(=O)[O-].[Na+]` [No. 55, Sodium laurate], for which the In vivo photoallergy result in series [1] (literature classification) is “Negative”.
Regarding `CC(O)C(=O)O` (centres unmarked) [No. 59, Lactic acid], in series [1] (literature classification), the In vivo photoallergy result was “Negative”.
For the compound `O=C([O-])Cc1ccccc1Nc1c(Cl)cccc1Cl.[Na+]` [compound 13], the In vivo photoallergy entry in series [1] (reported in References 1 and 2) is recorded as “Positive”. For the same compound, in series [6], the “Difference in depletion (under light irradiation - without light irradiation) NAC (%)” value is listed as 99.4%, the “NAC Depletion (%) without light irradiation” value is 0.6% and the “NAC Depletion (%) under light irradiation” value came out at 100.0%. Besides, in series [7], the “NAL Depletion (%) without light irradiation” value stood at 0.0% and the “NAL Depletion (%) under light irradiation” value is listed as −4.1%. Further, the “Difference in depletion (under light irradiation - without light irradiation) NAC (%)” value in series [3] was determined as 100.0%. Further, the “NAC Depletion (%)” value in series [3] (without light irradiation) stood at 0.0%. Further, the “Difference in depletion (under light irradiation - without light irradiation) NAL (%)” value in series [4] is 0.0%. Further, the “NAL Depletion (%)” value in series [4] (without light irradiation) was found to be 0.0%.
For the compound `C=CC1CN2CCC1CC2C(O)c1ccnc2ccc(OC)cc12.Cl.O.O` (centres unmarked) [compound 15], in series [6], the “Difference in depletion (under light irradiation - without light irradiation) NAC (%)” value was 98.9%, the “NAC Depletion (%) without light irradiation” value amounted to 1.1% and the “NAC Depletion (%) under light irradiation” value is reported as 100.0%. Moreover, in series [7], the “Difference in depletion (under light irradiation - without light irradiation) NAL (%)” value is 4.1%, the “NAL Depletion (%) without light irradiation” value is 0.0% and the “NAL Depletion (%) under light irradiation” value is 4.1%. In series [3], the “Difference in depletion (under light irradiation - without light irradiation) NAC (%)” value turned out to be 98.8%. The “NAC Depletion (%)” value in series [3] (without light irradiation) stood at 1.0%. The “Difference in depletion (under light irradiation - without light irradiation) NAL (%)” value in series [4] is recorded as 0.7%. In addition, the “NAL Depletion (%)” value in series [4] (without light irradiation) is 0.0%.
`COc1ccc2ccc(=O)oc2c1` [compound 30, 7-Methoxycoumarin]: the In vivo photoallergy result in series [1] (reported in References 1 and 2) is reported as “Positive”.
In the case of `CN(C)C1C(O)=C(C(N)=O)C(=O)C2(O)C(O)=C3C(=O)c4c(O)cccc4C(C)(O)C3CC12` (centres unmarked) [compound 36], the In vivo photoallergy result in series [1] (reported in References 1 and 2) was “Negative”. In series [6], the “NAC Depletion (%) without light irradiation” value is listed as −59.4% and the “NAC Depletion (%) under light irradiation” value was 44.6%. In addition, in series [7], the “Difference in depletion (under light irradiation - without light irradiation) NAL (%)” value was 22.5%, the “NAL Depletion (%) without light irradiation” value is listed as 5.1% and the “NAL Depletion (%) under light irradiation” value stood at 27.6%. The “Difference in depletion (under light irradiation - without light irradiation) NAC (%)” value in series [3] is listed as 43.4%. Moreover, the “NAC Depletion (%)” value in series [3] (without light irradiation) came to 56.6%. The “Difference in depletion (under light irradiation - without light irradiation) NAL (%)” value in series [4] stood at 25.6%. The “NAL Depletion (%)” value in series [4] (without light irradiation) is reported as 3.0%.
`CCCCCCCCCCCCOS(=O)(=O)[O-].[Na+]` [compound 56, Sodium lauryl sulfate]: the In vivo phototoxicity entry in series [2] (in vivo) was “Negative”.

Source of the values: patent US20220364989A1, “METHOD FOR MEASURING PHOTOTOXICITY OR PHOTOALLERGY AND REAGENT FOR USE THEREIN” (FUJIFILM Corporation, priority 2018, published 2022).
